# Source: PMC12281424, “A Rac-specific competitive inhibitor of guanine nucleotide binding reduces metastasis in triple-negative breast cancer” (Cell Reports Medicine, 2025)
# Assays:
# CDK2/cyclinA(h) = CDK2/cyclinA(h) (Homo sapiens, UniProt P24941); experiment: Kinase Profiler; format: biochemical
# Protocol: (§3) Blood cell counts, kinase profiler, safety screen, bacterial cytotoxicity, Ames, micronucleus assays were performed by the company Eurofins (France). The kinase profiler was performed by the company Eurofins (Discovery, Panlab and Cerep).
# PI3K (p120g)(h) = PI3K (p120g)(h) (Homo sapiens, UniProt P48736); experiment: Kinase Profiler; format: biochemical
# Protocol: as §3
# Flt3(D835Y)(h) = Flt3(D835Y)(h) (Homo sapiens, UniProt P36888, D835Y); experiment: Kinase Profiler; format: biochemical
# Protocol: (§4) The kinase profiler was performed by the company Eurofins (Discovery, Panlab and Cerep).
# CLK2(h) = CLK2(h) (Homo sapiens, UniProt P49760); experiment: Kinase Profiler; format: biochemical
# Protocol: as §4
# FGFR3(h) = FGFR3(h) (Homo sapiens, UniProt P22607); experiment: Kinase Profiler; format: biochemical
# Protocol: as §4
# 4T1 tumor cells = experiment: Syngeneic breast cancer model; format: in vivo, mouse; settings: BALB/c mice
# Protocol: Figure 6 A41 decreases metastasis of TNBC cells in vivo (A) Representative images of luciferase bioluminescence intensities (BLI) in whole body, legs, and ovaries/uterus 4 weeks after resection of MD1-MB-468 Luc tumor in NMRI nude mice not treated (control) and treated with A41 (25 mg/kg/day, intraperitoneally for 4 weeks). (B) Metastasis frequency quantification based on ex vivo BLI measurements in indicated organs from control (black bars) and A41-treated mice 4 weeks after tumor resection (white bars) (N = 10–15 mice; ∗p < 0.05 vs. controls). (C) BLI quantification in legs and ovaries/uterus from control (black squares) and A41-treated (white squares) NMRI nude mice 4 weeks after tumor resection (N = 10–15 mice; ∗p < 0.05 vs. controls). (D) Cumulative proportion of immunocompetent control (red) and A41-treated mice (blue) displaying regrowth of the primary tumor after its resection. (E) Metastasis frequency quantified from ex vivo BLI measurements in leg bones, lungs, kidneys, and ovaries/uterus from immunocompetent control (black bar) and A41-treated (white bar) mice (N = 10 mice; ∗p < 0.05 vs. control). (F) Survival curve of immunocompetent control (red) and A41-treated mice (blue) after primary tumor resection (day 0).
# To circumvent this limitation and evaluate if the immune system could affect the anti-metastatic property of A41, we evaluated its effect in a syngeneic model. We injected murine 4T1 tumor cells into the mammary fat pad of immunocompetent BALB/c mice.
# ROCK-I(h) = ROCK-I(h) (Homo sapiens, UniProt Q13464); experiment: Kinase Profiler; format: biochemical
# Protocol: as §3
# [1] = system: p44/42 phosphorylation in MDA-MB-468 Luc cells; experiment: Immunoblotting; format: cell-based; settings: 10^-5 M, 1 h
# Protocol: (§1) Figure 5 A41 decreases growth and invasiveness of TNBC cells in vitro (A) Representative images of RAC-GTP levels (red) in MDA-MB-468 Luc cells in the absence (CTL) and presence of EHT1864, NSC23766, or A41 (1 h at 10 μM) (left). Luciferase (Luc, green) was used to detect the cells. RAC-GTP mean fluorescence intensity was quantified inside the cell area (right) (n = 31–37 cells from 3 independent experiments; ∗p < 0.05, ∗∗∗p < 0.001) (scale bars: 10 μm). […] (C) Quantification of colony number of indicated cancer cell lines in the presence of A41 (10 μM) expressed as the percentage of control in the absence of A41. Results shown are representative of N > 3 independent experiments. (D) Immunoblot analysis and corresponding quantification of AKT and P44/42 expression and phosphorylation (pAKT, p44/42) in MDA-MB-468 Luc cells in the absence (−) and presence of NSC23766 or A41 (1 h at 10^−5 M). […] (E) 3D invasion assay of MDA-MB-468 Luc and cancer-associated fibroblasts (CAFs) and corresponding quantification (scale bars: 200 μm). […]
# (§2) After indicated treatments, MDA-MB-468Luc cells were incubated on ice with lysis buffer supplemented with proteases and phosphatases inhibitor cocktails (Sigma Aldrich, Saint Quentin Fallavier, France) and sodium orthovanadate. […] Protein band intensities were quantified using ImageJ Software (NIH software, Bethesda, Md).
# [2] = system: AKT phosphorylation in MDA-MB-468 Luc cells; experiment: Immunoblotting; format: cell-based; settings: 10^-5 M, 1 h
# Protocol: as §1, §2
# NEK2(h) = NEK2(h) (Homo sapiens, UniProt P51955); experiment: Kinase Profiler; format: biochemical
# Protocol: as §4
# PKG1α(h) = PKG1α(h) (Homo sapiens, UniProt Q13976); experiment: Kinase Profiler; format: biochemical
# Protocol: as §4
# SRPK1(h) = SRPK1(h) (Homo sapiens, UniProt Q96SB4); experiment: Kinase Profiler; format: biochemical
# Protocol: as §4
# PI3K (p110a/p65a)(m) = experiment: Kinase Profiler; format: biochemical, mouse
# Protocol: as §3
# ATR/ATRIP(h) = ATR/ATRIP(h) (Homo sapiens, UniProt Q13535); experiment: Kinase Profiler; format: biochemical
# Protocol: as §4
# GRK5(h) = GRK5(h) (Homo sapiens, UniProt P34947); experiment: Kinase Profiler; format: biochemical
# Protocol: as §3
# PKCα(h) = PKCα(h) (Homo sapiens, UniProt P17252); experiment: Kinase Profiler; format: biochemical
# Protocol: as §4
# PI3K (p110a/p85a)(h) = PI3K (p110a/p85a)(h) (Homo sapiens, UniProt P42336); experiment: Kinase Profiler; format: biochemical
# Protocol: as §4
# AMPKα2(h) = AMPKα2(h) (Homo sapiens, UniProt P54646); experiment: Kinase Profiler; format: biochemical
# Protocol: as §3
# SAPK2b(h) = SAPK2b(h) (Homo sapiens, UniProt Q15759); experiment: Kinase Profiler; format: biochemical
# Protocol: as §4
# CRIK(h) = CRIK(h) (Homo sapiens, UniProt O14578); experiment: Kinase Profiler; format: biochemical
# Protocol: as §4
# Chain of ATR/ATRIP(h) (Q13535 whole entry): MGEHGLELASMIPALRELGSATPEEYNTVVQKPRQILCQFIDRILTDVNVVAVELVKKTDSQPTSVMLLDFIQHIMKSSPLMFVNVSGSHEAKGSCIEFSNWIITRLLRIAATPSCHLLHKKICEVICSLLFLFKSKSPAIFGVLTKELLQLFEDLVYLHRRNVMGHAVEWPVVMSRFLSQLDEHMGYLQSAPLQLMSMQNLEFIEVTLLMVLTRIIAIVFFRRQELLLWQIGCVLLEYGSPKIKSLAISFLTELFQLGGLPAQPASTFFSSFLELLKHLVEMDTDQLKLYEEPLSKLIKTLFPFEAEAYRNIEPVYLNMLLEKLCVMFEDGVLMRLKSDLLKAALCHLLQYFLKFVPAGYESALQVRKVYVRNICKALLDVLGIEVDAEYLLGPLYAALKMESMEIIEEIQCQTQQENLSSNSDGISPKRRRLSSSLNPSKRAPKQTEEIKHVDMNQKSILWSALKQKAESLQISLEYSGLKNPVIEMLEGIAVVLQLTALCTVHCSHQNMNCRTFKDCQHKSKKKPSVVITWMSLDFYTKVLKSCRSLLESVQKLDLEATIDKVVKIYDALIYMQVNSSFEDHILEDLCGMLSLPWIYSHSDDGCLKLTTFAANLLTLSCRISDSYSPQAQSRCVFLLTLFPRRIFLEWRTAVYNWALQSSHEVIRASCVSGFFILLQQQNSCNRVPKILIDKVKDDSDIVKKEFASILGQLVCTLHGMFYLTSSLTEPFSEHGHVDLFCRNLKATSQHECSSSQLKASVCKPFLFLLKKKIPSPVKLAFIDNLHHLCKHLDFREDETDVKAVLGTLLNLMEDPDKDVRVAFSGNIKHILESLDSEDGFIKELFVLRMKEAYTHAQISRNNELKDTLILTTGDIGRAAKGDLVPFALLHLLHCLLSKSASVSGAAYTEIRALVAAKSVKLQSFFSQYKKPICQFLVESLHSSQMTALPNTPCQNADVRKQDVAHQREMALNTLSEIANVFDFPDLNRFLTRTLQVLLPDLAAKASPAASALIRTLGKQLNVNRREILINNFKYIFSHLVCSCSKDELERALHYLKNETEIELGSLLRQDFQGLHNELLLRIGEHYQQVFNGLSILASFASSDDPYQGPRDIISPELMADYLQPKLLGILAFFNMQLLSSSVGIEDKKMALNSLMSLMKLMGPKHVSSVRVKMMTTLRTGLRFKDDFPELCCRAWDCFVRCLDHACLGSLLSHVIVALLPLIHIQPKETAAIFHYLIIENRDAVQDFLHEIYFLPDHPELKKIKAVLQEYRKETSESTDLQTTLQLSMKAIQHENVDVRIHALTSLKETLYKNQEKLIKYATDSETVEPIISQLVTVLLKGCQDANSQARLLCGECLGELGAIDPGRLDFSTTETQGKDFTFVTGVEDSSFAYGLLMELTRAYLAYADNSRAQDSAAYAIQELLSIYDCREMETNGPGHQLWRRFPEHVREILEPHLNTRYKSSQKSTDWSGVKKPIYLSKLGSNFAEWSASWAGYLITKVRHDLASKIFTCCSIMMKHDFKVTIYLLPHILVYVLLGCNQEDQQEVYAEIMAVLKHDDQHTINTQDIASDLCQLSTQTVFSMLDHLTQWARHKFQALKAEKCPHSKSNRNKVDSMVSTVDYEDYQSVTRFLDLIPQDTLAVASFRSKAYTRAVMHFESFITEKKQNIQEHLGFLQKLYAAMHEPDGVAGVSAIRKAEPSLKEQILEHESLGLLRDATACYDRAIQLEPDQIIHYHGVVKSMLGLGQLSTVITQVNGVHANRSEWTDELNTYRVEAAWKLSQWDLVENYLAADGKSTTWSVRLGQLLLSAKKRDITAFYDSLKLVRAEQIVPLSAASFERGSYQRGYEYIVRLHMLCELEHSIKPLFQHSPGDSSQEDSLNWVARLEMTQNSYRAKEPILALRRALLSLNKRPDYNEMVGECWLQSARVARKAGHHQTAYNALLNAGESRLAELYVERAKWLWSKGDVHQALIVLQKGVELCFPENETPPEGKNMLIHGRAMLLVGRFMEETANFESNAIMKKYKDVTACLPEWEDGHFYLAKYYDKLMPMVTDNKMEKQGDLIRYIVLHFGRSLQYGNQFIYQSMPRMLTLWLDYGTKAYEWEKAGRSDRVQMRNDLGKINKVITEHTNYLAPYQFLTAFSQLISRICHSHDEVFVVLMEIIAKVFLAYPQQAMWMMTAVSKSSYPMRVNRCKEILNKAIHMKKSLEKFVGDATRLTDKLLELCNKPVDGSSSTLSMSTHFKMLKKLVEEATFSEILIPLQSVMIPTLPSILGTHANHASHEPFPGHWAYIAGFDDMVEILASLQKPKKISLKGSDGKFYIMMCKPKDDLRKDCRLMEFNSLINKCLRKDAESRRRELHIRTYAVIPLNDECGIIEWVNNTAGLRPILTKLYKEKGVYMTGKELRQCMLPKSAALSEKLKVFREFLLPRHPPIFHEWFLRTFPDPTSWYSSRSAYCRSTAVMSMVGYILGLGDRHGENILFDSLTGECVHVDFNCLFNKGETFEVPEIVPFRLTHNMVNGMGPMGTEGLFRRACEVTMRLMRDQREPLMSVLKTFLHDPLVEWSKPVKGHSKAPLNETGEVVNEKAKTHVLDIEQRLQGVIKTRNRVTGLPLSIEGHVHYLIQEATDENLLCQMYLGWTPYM
# Chain of ATR/ATRIP(h) (Q8WXE1 whole entry partner): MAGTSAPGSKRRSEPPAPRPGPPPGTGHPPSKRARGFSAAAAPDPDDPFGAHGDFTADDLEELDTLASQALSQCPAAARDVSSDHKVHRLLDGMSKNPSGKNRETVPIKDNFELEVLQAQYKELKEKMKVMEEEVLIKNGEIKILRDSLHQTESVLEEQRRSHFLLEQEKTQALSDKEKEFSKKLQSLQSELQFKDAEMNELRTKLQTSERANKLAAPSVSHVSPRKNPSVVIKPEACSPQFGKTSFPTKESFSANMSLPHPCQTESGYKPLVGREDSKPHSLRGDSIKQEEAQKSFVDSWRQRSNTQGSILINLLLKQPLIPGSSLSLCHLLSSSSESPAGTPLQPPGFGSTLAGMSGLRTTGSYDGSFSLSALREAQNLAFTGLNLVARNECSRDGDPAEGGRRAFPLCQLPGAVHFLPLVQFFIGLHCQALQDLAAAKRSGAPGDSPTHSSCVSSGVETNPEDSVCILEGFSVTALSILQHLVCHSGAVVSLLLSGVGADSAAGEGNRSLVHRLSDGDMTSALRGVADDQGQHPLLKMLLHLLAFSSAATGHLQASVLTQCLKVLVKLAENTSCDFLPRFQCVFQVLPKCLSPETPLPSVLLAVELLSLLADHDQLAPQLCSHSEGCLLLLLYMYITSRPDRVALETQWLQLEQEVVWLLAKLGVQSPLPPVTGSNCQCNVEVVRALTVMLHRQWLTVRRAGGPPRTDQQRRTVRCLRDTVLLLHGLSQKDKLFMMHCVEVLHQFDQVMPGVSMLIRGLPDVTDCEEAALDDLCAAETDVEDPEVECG
# Chain of SRPK1(h) (Q96SB4 whole entry): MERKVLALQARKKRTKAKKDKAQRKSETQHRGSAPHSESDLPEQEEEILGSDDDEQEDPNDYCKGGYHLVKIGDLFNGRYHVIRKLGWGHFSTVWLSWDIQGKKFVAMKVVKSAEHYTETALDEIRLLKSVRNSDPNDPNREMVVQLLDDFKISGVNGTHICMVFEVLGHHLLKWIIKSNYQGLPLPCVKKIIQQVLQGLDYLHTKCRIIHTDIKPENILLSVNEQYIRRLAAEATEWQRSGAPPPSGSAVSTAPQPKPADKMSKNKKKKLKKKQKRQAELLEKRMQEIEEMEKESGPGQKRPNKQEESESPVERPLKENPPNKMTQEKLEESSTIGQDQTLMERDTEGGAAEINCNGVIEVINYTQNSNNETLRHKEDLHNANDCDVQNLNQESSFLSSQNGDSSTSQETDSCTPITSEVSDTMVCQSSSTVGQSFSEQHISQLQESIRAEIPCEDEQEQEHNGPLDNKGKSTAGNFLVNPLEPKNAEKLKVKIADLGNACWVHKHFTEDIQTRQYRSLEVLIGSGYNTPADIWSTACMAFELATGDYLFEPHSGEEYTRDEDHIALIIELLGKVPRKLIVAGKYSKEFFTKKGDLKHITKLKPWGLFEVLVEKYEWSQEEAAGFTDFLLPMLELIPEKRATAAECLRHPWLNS
# Chain of SAPK2b(h) (Q15759 whole entry): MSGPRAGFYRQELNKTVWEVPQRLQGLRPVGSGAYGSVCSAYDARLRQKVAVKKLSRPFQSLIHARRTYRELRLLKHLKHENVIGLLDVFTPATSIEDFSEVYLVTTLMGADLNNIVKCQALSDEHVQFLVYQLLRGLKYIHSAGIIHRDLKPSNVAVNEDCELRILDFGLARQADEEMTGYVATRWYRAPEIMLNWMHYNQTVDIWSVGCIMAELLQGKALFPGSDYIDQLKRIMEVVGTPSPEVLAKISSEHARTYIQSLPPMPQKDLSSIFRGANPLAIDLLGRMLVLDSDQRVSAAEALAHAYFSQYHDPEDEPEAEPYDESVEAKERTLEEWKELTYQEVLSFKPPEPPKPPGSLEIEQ
smiles,measurement,setting,value
COc1ccc(OC)c(NS(=O)(=O)c2ccc(NC(=O)CCSc3ccc(C)cc3)cc2)c1 [Compound A41],Activity(%),CDK2/cyclinA(h),97%
same,Activity(%),PI3K (p120g)(h),104%
same,Activity(%),Flt3(D835Y)(h),101%
same,Activity(%),CLK2(h),97%
same,Activity(%),FGFR3(h),89%
same,frequency of primary tumor re-growth (mice with regrowth),4T1 tumor cells; 4 weeks post resection,40%
same,survival rate,4T1 tumor cells; 4 weeks post resection,80%
same,metastasis frequency,4T1 tumor cells; after primary tumor resection,significantly reduced metastasis frequency
same,Activity(%),ROCK-I(h),101%
same,p44/42 activation,[1],unchanged
same,hyperactivation of AKT,[2],reduced
same,Activity(%),NEK2(h),118%
same,Activity(%),PKG1α(h),113%
same,Activity(%),SRPK1(h),114%
same,Activity(%),PI3K (p110a/p65a)(m),100%
same,Activity(%),ATR/ATRIP(h),93%
same,Activity(%),GRK5(h),101%
same,Activity(%),PKCα(h),105%
same,Activity(%),PI3K (p110a/p85a)(h),100%
same,Activity(%),AMPKα2(h),111%
same,Activity(%),SAPK2b(h),107%
same,Activity(%),CRIK(h),106%
